# Source: PMC8241176, “Preliminary study on fabrication, characterization and synergistic anti-lung cancer effects of self-assembled micelles of covalently conjugated celastrol–polyethylene glycol–ginsenoside Rh2” (Drug Delivery, 2017)
# Tested on: A549 cells
# Assay: Antiproliferative effect by MTT assay
# Type: cell-based, human
# Conditions: 48 h, G Rh2 6.4 μg/mL
# Description: The human NSCLC cell line, A549, was cultured in RPMI 1640 medium containing 10% FBS at 37 °C and 5% CO2 in an incubator with saturated humidity. The medium was replaced every 2 days and the cells were passaged at the split ratio of 1:8 every 5–7 days. Cells grown to the logarithmic growth phase were harvested for further experiments.
# The A549 cells were seeded in a 96-well plate at 5 × 10^3 cells/well and incubated for 24 h. The medium was then discarded and each well received 100 μL of different concentrations of CG-M, CG-Mblank, celastrol + G Rh2, celastrol and G Rh2. After 48 h of incubation, 100 μL of 0.5 mg/mL MTT in phosphate-buffered saline (PBS) was added to each well, followed by 4 h of incubation in the dark. […] The plate was shaken at low speed for 3 min, and the absorbance at 570 nm was measured using a microplate reader to calculate cell viability. Cell viability (%) = Absorbance of the drug treatment group (Adrug)/Absorbance of the control group (Acontrol) × 100. The IC50 was calculated by GraphPad prism 6.0 software (GraphPad Software Inc., San Diego, CA). The combined index (CI) was calculated with the following formula: CI = IC50 of celastrol in combination group/IC50 of celastrol + IC50 of G Rh2 in combination group/IC50 of G Rh2 (Qu et al., [2017]; Wu et al., [2017]), which represents a synergistic antitumor effect if the value is less than 1.
smiles,measurement,value
"CC(C)=CCC[C@](C)(O)[C@H]1CC[C@]2(C)[C@@H]1[C@H](O)C[C@@H]1[C@@]3(C)CC[C@H](O[C@@H]4O[C@H](CO)[C@@H](O)[C@H](O)[C@H]4O)C(C)(C)[C@@H]3CC[C@]12C [G Rh2, ginsenoside Rh2]",survival rate of cells,67.5%
